{"source": "patent US20260191244A1", "about": "“NOVEL FLAVOR COMPOUNDS” (INTERNATIONAL FLAVORS & FRAGRANCES INC., priority 2022, published 2026)", "key": {"[1]": {"test": "Flavor evaluation in Ribotide solution (1000 ppm)", "details": "2 ppm added in Ribotide solution (1000 ppm)", "from_the_text": "The Structure A4 and B4 mixture of 50:50 ratio ([…]) was further evaluated in Ribotide® (1000 ppm)."}, "[2]": {"test": "Flavor evaluation of water solutions", "details": "for Flavor Profile: water solution", "experimental": "A series of water solutions of N-(4-methoxyphenyl)-2-methyl-2-(1-methylcyclohexyl)propenamide (Structure A4) were prepared and evaluated for flavor. The flavor profile is reported in the following:\nPreparation and Evaluation of N-(4-Methoxyphenyl)-2-methyl-2-(1-methylcyclohexyl)propenamide (Structure A4) and 1-(tert-Butyl)-N-(4-methoxyphenyl)cyclohexane-1-carboxamide (Structure B4) Mixtures of Different Ratios: Mixtures of N-(4-methoxyphenyl)-2-methyl-2-(1-methylcyclohexyl)propenamide (Structure A4) and 1-(tert-butyl)-N-(4-methoxyphenyl)cyclohexane-1-carboxamide (Structure B4) were prepared by mixing two compounds at different ratios. “Ratio” refers to the weight ratio of Structure A4 and Structure B4. Water solutions of the mixtures (375 ppb) were prepared and evaluated for flavor in water, MSG solution (5000 ppm) and a salt solution (containing NaCl of 3750 ppm, Ribotide® of 35 ppm and MSG of 840 ppm), respectively. Water, MSG solution and the salt solution were each used as base controls."}, "[3]": {"test": "Summary statements over all flavor evaluations"}, "[4]": {"test": "Flavor evaluation in monosodium glutamate (MSG) solution (5000 ppm)", "experimental": "A monosodium glutamate (MSG) solution (5000 ppm) was prepared in water. The flavor profile of the MSG solution with added Structure A4 is reported in the following:\nAs used herein, the term “synergistic umami” refers to the umami effect of the Structure A4 and MSG combination that is stronger than the added umami effect of individual Structure A4 and MSG. […]"}}}
{"smiles": "COc1ccc(NC(=O)C(C)(C)C2(C)CCCCC2)cc1", "note": "[Structure A4, N-(4-Methoxyphenyl)-2-methyl-2-(1-methylcyclohexyl)propenamide]", "values": [{"measurement": "Synergistic umami in Ribotide solution", "setting": "[1]", "value": "synergistic umami was also achieved"}, {"measurement": "Flavor Profile", "setting": "[2]; Structure A4 1 ppm", "value": "Strong umami, cooling, tingly, tongue scratching"}, {"measurement": "Flavor Profile", "setting": "[2]; Structure A4 2 ppm", "value": "Strong and lingering umami, good mouthfeel, cooling, tingling"}, {"measurement": "Flavor Profile", "setting": "[2]; Structure A4 5 ppm", "value": "Strong and lingering umami, moderate and lingering cooling, lingering bitter, drying"}, {"measurement": "Flavor Profile", "setting": "[2]; Structure A4 10 ppm", "value": "Moderate umami, moderate cooling, lingering bitter, tingling, brackish linger"}, {"measurement": "Flavor Profile", "setting": "[2]; Structure A4 15 ppm", "value": "Moderate umami, moderate cooling, lingering bitter, creamy, mineral, drying"}, {"measurement": "Flavor Profile", "setting": "[2]; Structure A4 100 ppb", "value": "Very slight bitter, minimal cooling, drying linger, minimal umami"}, {"measurement": "Flavor Profile", "setting": "[2]; Structure A4 200 ppb", "value": "Slight cooling, slight bitter, drying, very slight umami"}, {"measurement": "Flavor Profile", "setting": "[2]; Structure A4 375 ppb", "value": "Slight bitter, cooling, umami, linger"}, {"measurement": "Flavor Profile", "setting": "[2]; Structure A4 500 ppb", "value": "Clear and moderate umami, slight bitter, cooling, linger"}, {"measurement": "Flavor Profile", "setting": "[2]; Structure A4 750 ppb", "value": "Clear and moderate umami, cooling, slightly soapy, slightly waxy"}, {"measurement": "Umami in water", "setting": "[2]; water solutions, all concentrations 100 ppb to 15 ppm", "value": "exhibited umami"}, {"measurement": "Umami character", "setting": "[3]; in all evaluations", "value": "provided upfront and lingering umami character"}, {"measurement": "Synergistic umami", "setting": "[3]; when combined with Structure B4 and/or an additional umami compound", "value": "achieved synergistic umami"}, {"measurement": "Umami Strength", "setting": "[4]; MSG solution (5000 ppm) with added Structure A4 1 ppm", "value": "Synergistic umami of Structure A4 and MSG, lingering umami"}, {"measurement": "Umami Strength", "setting": "[4]; MSG solution (5000 ppm) with added Structure A4 2 ppm", "value": "Synergistic umami of Structure A4 and MSG, lingering umami"}, {"measurement": "Umami Strength", "setting": "[4]; MSG solution (5000 ppm) with added Structure A4 5 ppm", "value": "Synergistic umami of Structure A4 and MSG, strong cooling"}, {"measurement": "Umami Strength", "setting": "[4]; MSG solution (5000 ppm) with added Structure A4 10 ppm", "value": "Synergistic umami of Structure A4 and MSG, strong cooling"}, {"measurement": "Umami Strength", "setting": "[4]; MSG solution (5000 ppm) with added Structure A4 15 ppm", "value": "Synergistic umami of Structure A4 and MSG, strong cooling"}, {"measurement": "Umami Strength", "setting": "[4]; MSG solution (5000 ppm) with added Structure A4 100 ppb", "value": "Added effect of Structure A4 and MSG"}, {"measurement": "Umami Strength", "setting": "[4]; MSG solution (5000 ppm) with added Structure A4 200 ppb", "value": "Synergistic umami of Structure A4 and MSG, lingering umami"}, {"measurement": "Umami Strength", "setting": "[4]; MSG solution (5000 ppm) with added Structure A4 375 ppb", "value": "Synergistic umami of Structure A4 and MSG, lingering umami"}, {"measurement": "Umami Strength", "setting": "[4]; MSG solution (5000 ppm) with added Structure A4 500 ppb", "value": "Synergistic umami of Structure A4 and MSG, lingering umami"}, {"measurement": "Umami Strength", "setting": "[4]; MSG solution (5000 ppm) with added Structure A4 750 ppb", "value": "Synergistic umami of Structure A4 and MSG, lingering umami"}, {"measurement": "Synergistic umami with MSG", "setting": "[4]; Structure A4 ranging from 200 ppb to 15 ppm and MSG (5000 ppm)", "value": "Synergistic umami was achieved"}]}
{"smiles": "COc1ccc(NC(=O)C2(C(C)(C)C)CCCCC2)cc1", "note": "[Structure B4, 1-(tert-butyl)-N-(4-methoxyphenyl)cyclohexane-1-carboxamide]", "values": [{"measurement": "Flavor in water", "setting": "[2]; 375 ppb in water", "value": "slight umami, slight sweetness and bitter linger"}]}
